One experiment has as its target human CB1 receptors (Homo sapiens (Human), UniProt P21554). The experiment in a line: cAMP assay, CHO cells expressing human CB1 receptors. In kind it is cell-based. The note with it: functional cAMP assay, CHO cells expressing human CB1; read-out: EC50 CB1 human. The procedure, abridged:
(§1)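 Transfected CHO cells were preincubated in Krebs Ringer bicarbonate buffer with 1 mM IBMX for 30 min at 30 °C, then exposed to compound for 30 min at 30 °C. cAMP was measured by time-resolved FRET (730/645 nm) against a standard curve spanning 10 μM to 0.13 nM. EC50 values derived from concentration–response data.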

The target in the next experiment is human CB2 receptors (Homo sapiens (Human), UniProt P34972). The experiment is described as follows: cAMP assay, CHO cells expressing human CB2 receptors. In kind it is cell-based. The note with it: functional cAMP assay, CHO cells expressing human CB2; read-out: EC50 CB2 human. The method, boiled down: as §1
Sequence of human CB2 receptors (P34972 whole entry): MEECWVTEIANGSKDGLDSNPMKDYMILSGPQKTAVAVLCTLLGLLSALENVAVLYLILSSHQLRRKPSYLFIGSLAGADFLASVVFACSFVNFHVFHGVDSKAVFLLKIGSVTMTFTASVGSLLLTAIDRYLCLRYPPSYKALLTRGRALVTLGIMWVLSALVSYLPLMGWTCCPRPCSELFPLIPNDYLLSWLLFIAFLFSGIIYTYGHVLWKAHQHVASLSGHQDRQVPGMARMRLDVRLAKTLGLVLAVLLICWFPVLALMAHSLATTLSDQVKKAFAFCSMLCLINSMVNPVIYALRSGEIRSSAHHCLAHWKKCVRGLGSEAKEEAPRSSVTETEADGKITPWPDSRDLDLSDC

Sequence of human CB1 receptors (P21554 whole entry): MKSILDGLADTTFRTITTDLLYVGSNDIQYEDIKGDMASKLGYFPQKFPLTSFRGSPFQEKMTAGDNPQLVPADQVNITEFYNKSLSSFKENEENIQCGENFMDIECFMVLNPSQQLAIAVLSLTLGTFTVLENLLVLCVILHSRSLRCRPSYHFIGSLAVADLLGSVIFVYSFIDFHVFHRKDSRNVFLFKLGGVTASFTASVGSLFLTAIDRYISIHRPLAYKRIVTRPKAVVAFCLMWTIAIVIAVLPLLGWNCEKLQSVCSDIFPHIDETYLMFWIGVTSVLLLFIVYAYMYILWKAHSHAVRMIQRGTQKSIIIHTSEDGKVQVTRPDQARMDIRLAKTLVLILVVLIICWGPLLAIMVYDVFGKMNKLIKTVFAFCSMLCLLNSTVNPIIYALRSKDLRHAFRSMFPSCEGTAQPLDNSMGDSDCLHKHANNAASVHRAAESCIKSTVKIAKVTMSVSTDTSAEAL

Regarding `CC(C)(C)c1cnc(-c2cc(OCC3CC3)c(C3CC3)cn2)o1` [Example 65, 5-tert-butyl-2-[5-cyclopropyl-4-(cyclopropylmethoxy)pyridin-2-yl]-1,3-oxazole], the concentration for a half-maximal effect (EC50) on human CB1 receptors was determined as 170 nM; at human CB2 receptors, 1.7 nM.
As to `FC(F)(F)c1nc(-c2cc(OCC3CC3)c(C3CC3)cn2)no1` [Example 19, 3-[5-cyclopropyl-4-(cyclopropylmethoxy)pyridin-2-yl]-5-(trifluoromethyl)-1,2,4-oxadiazole], the EC50 on human CB1 receptors was above 10000 nM; at human CB2 receptors, 13.7 nM.
The matching figures for `FC(F)(F)COc1cc(-c2nc(C(F)(F)F)no2)ncc1C1CC1` [Example 8, 5-[5-cyclopropyl-4-(2,2,2-trifluoroethoxy)pyridin-2-yl]-3-(trifluoromethyl)-1,2,4-oxadiazole]: above 10000 nM and 21.3 nM.
Take `CC(C)(C)c1nc(-c2cc(N3CC4(COC4)C3)c(C3CC3)cn2)no1` [Example 82, 6-[2-(5-tert-butyl-1,2,4-oxadiazol-3-yl)-5-cyclopropylpyridin-4-yl]-2-oxa-6-azaspiro[3.3]heptane]: the EC50 was above 10000 nM on human CB1 receptors and 37.9 nM on human CB2 receptors.
In the case of `CC1(COc2cc(-c3noc(C(C)(C)C)n3)ncc2C2CC2)COC1` [Example 55, 5-tert-butyl-3-[5-cyclopropyl-4-[(3-methyloxetan-3-yl)methoxy]pyridin-2-yl]-1,2,4-oxadiazole], the results for the EC50 at human CB1 receptors and at human CB2 receptors were above 10000 nM and 7.7 nM, respectively.
The matching figures for `CC(C)(C)c1nc(-c2cc(OCC(F)(F)F)c(Cl)cn2)no1` [Example 70, 5-tert-butyl-3-[5-chloro-4-(2,2,2-trifluoroethoxy)pyridin-2-yl]-1,2,4-oxadiazole]: above 10000 nM and 5.7 nM.
Taken in the same sequence, the figures for `OC1(c2nc(-c3cc(OCC(F)(F)F)c(C4CC4)cn3)no2)CC1` [Example 37, 1-[3-[5-cyclopropyl-4-(2,2,2-trifluoroethoxy)pyridin-2-yl]-1,2,4-oxadiazol-5-yl]cyclopropan-1-ol] were above 10000 nM and 236 nM.
Taken in the same sequence, the figures for `C[C@H](Oc1cc(-c2nc(C(C)(C)C)no2)ncc1C1CC1)C(F)(F)F` [Example 52, 3-tert-butyl-5-[5-cyclopropyl-4-[(2S)-1,1,1-trifluoropropan-2-yl]oxypyridin-2-yl]-1,2,4-oxadiazole] were above 10000 nM and 13.1 nM.
On to `CC1(C)CN=C(c2cc(OCC(F)(F)F)c(C3CC3)cn2)O1` [Example 41, 2-[5-cyclopropyl-4-(2,2,2-trifluoroethoxy)pyridin-2-yl]-5,5-dimethyl-4H-1,3-oxazole], for which the EC50 at human CB1 receptors is above 10000 nM; at human CB2 receptors, 53.9 nM.
Taken in the same sequence, the figures for `CC(C)(C)c1nc(-c2cc(OCC3COC3)c(C3CC3)cn2)no1` [Example 90, 5-tert-butyl-3-[5-cyclopropyl-4-(oxetan-3-ylmethoxy)pyridin-2-yl]-1,2,4-oxadiazole] were above 10000 nM and 11.8 nM.
The matching figures for `CC(C)(C)c1nc(-c2cc(Oc3ccc(S(C)(=O)=O)cc3)c(C3CC3)cn2)no1` [Example 75, 5-tert-butyl-3-[5-cyclopropyl-4-(4-methylsulfonylphenoxy)pyridin-2-yl]-1,2,4-oxadiazole]: above 10000 nM and 288 nM.
The matching figures for `C[C@@H](Oc1cc(-c2nc(C(C)(C)C)no2)ncc1C1CC1)C(F)(F)F` [Example 51, 3-tert-butyl-5-[5-cyclopropyl-4-[(2R)-1,1,1-trifluoropropan-2-yl]oxypyridin-2-yl]-1,2,4-oxadiazole]: above 10000 nM and 61.8 nM.
Turning to `c1c(-c2nc(C3CCCC3)no2)ncc(C2CC2)c1OCC1CC1` [Example 4, 3-cyclopentyl-5-[5-cyclopropyl-4-(cyclopropylmethoxy)pyridin-2-yl]-1,2,4-oxadiazole], the results for the EC50 on human CB1 receptors and on human CB2 receptors were above 10000 nM and 2.1 nM, respectively.

Values taken from patent US10308659B2, “Pyridine derivatives” (Hoffmann-La Roche Inc., priority 2013, dated 2019).
